Drawing on patent US20150218172A1, “Pyrrolo[2,3-D]Pyrimidine Tropomyosin-Related Kinase Inhibitors” (PFIZER LIMITED, priority 2012, published 2015), this text covers IC50 for 21 compounds.

The experiment concerns the target T1, TrkA (Homo sapiens, UniProt P04629).
T1 construct: aa 441-796; His; purchased Invitrogen PV3144
The experiment in a line: Isolated TRK enzyme assay (HTRF KinEASE-TK kit), PV3144 TrkA enzyme assay. Particulars: PV3144 TrkA enzyme assay, recombinant His-tagged cytoplasmic domain aa 441-796, 4 nM enzyme, 40 uM ATP; arithmetic mean where more than one reading; read-out: Trka enzyme (IC50). It is filed as biochemical. The procedure, abridged:
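HTRF KinEASE tyrosine-phosphorylation readout (665/620 nm ratio) on a 1 uM biotinylated substrate after reaction with preactivated His-tagged TrkA cytoplasmic domain plus ATP and MgCl2/DTT buffer. Compound preincubated 20 min with enzyme; IC50 from log-concentration sigmoid curve, averaged where repeated.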

Structures are written as SMILES.

T1 sequence (P04629 441-796): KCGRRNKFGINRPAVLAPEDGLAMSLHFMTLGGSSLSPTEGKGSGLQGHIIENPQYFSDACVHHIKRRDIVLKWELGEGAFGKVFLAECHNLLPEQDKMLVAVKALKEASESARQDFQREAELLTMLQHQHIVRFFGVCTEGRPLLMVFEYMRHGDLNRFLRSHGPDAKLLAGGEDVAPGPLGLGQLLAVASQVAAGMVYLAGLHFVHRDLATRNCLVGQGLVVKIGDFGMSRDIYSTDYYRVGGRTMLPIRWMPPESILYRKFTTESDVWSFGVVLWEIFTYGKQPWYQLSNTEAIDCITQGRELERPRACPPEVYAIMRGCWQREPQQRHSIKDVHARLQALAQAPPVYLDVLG

The IC50 is the concentration that inhibits the measured activity by half. Regarding `CC(C)(CO)n1cc(C(=O)c2cc(NC(=O)Cn3ccc(C4CC4)n3)ccn2)c2cncnc21` [Example 61, 2-(3-cyclopropyl-1H-pyrazol-1-yl)-N-(2-{[7-(1-hydroxy-2-methylpropan-2-yl)-7H-pyrrolo[2,3-d]pyrimidin-5-yl]carbonyl}pyridin-4-yl)acetamide], the IC50 was 25.4 nM.

As for `Cc1cc(C(F)(F)F)nn1CC(=O)Nc1ccnc(C(=O)c2cn(C(C)(CO)CO)c3ncncc23)c1` [Example 108, N-(2-{[7-(1,3-dihydroxy-2-methylpropan-2-yl)-7H-pyrrolo[2,3-d]pyrimidin-5-yl]carbonyl}pyridin-4-yl)-2-[5-methyl-3-(trifluoromethyl)-1H-pyrazol-1-yl]acetamide], the IC50 is 369 nM.

In the case of `O=C(Cc1ccc(Cl)cc1)Nc1cc(C(=O)c2cn(CC3(CO)COC3)c3ncncc23)ccn1` [Example 115, 2-(4-Chlorophenyl)-N-{4-[(7-{[3-(hydroxymethyl)oxetan-3-yl]methyl}-7H-pyrrolo[2,3-d]pyrimidin-5-yl)carbonyl}pyridin-2-yl]acetamide], the IC50 stood at 126 nM.

With `O=C(Cc1ccc(C(F)(F)F)c(F)c1)Nc1ccnc(C(=O)c2cn(C(CO)CO)c3ncncc23)c1` [Example 94, N-(2-{[7-(1,3-dihydroxypropan-2-yl)-7H-pyrrolo[2,3-d]pyrimidin-5-yl]carbonyl}pyridin-4-yl)-2-[3-fluoro-4-(trifluoromethyl)phenyl]acetamide], the IC50 came out at 922 nM.

In the case of `CC(C)(CO)n1cc(C(=O)c2cc(NC(=O)Cc3ccc(C(F)(F)F)cc3)ccn2)c2cnc(N)nc21` [Example 50, N-(2-{[2-amino-7-(1-hydroxy-2-methylpropan-2-yl)-7H-pyrrolo[2,3-d]pyrimidin-5-yl]carbonyl}pyridin-4-yl)-2-[4-(trifluoromethyl)phenyl]acetamide], the IC50 came to 9.29 nM.

On to `Cc1nccn1CC(=O)Nc1cc(C(=O)c2cn(C(C)C)c3ncncc23)ccn1` [Example 162, 2-(2-methyl-1H-imidazol-1-yl)-N-(4-{[7-(propan-2-yl)-7H-pyrrolo[2,3-d]pyrimidin-5-yl]carbonyl}pyridin-2-yl)acetamide], for which the IC50 is 9800 nM.

For the compound `CC(C)n1cc(C(=O)c2ccnc(NC(=O)Cc3cccc(Cl)c3)c2)c2cncnc21` [Example 155, 2-(3-chlorophenyl)-N-(4-{[7-(propan-2-yl)-7H-pyrrolo[2,3-d]pyrimidin-5-yl]carbonyl}pyridin-2-yl)acetamide], the half-inhibitory concentration (IC50) amounted to 14.3 nM.

As for `CC(C)n1cc(C(=O)c2cc(NC(=O)Cc3cccc(S(C)(=O)=O)c3)ccn2)c2cnc(N)nc21` [Example 88, N-(2-{[2-amino-7-(propan-2-yl)-7H-pyrrolo[2,3-d]pyrimidin-5-yl]carbonyl}pyridin-4-yl)-2-[3-(methylsulfonyl)phenyl]acetamide], the IC50 was 75.9 nM.

As to `CC(C)(CO)n1cc(C(=O)c2ccc(C#N)c(NC(=O)Cn3cc(C(F)(F)F)nn3)c2)c2cnc(N)nc21` [Example 12, N-(5-{[2-amino-7-(1-hydroxy-2-methylpropan-2-yl)-7H-pyrrolo[2,3-d]pyrimidin-5-yl]carbonyl}-2-cyanophenyl)-2-[4-(trifluoromethyl)-1H-1,2,3-triazol-1-yl]acetamide], the half-inhibitory concentration (IC50) worked out at 60.7 nM.

As for `CC(C)(C)n1cc(C(=O)c2cc(NC(=O)Cc3ccc(Cl)cc3)ccn2)c2cncnc21` [Example 42, N-{2-[(7-tert-butyl-7H-pyrrolo[2,3-d]pyrimidin-5-yl)carbonyl]pyridin-4-yl}-2-(4-chlorophenyl)acetamide], the 50% inhibitory concentration (IC50) was found to be 11.5 nM.

As for `Cc1cc(C)n(CC(=O)Nc2cc(C(=O)c3cn([C@H]4CC[C@@H](O)CC4)c4ncncc34)ccn2)n1` [Example 4, 2-(3,5-dimethyl-1H-pyrazol-1-yl)-N-(4-{[7-(cis-4-hydroxycyclohexyl)-7H-pyrrolo[2,3-d]pyrimidin-5-yl]carbonyl}pyridin-2-yl)acetamide], the IC50 was determined as 74.3 nM.

Regarding `Cc1cc(C(=O)c2cn(C(C)C)c3ncncc23)cc(NC(=O)Cc2ccc(F)cc2)n1` [Example 77, 2-(4-fluorophenyl)-N-(6-methyl-4-{[7-(propan-2-yl)-7H-pyrrolo[2,3-d]pyrimidin-5-yl]carbonyl}pyridin-2-yl)acetamide], the 50% inhibitory concentration (IC50) was 226 nM.

Regarding `Cc1cc(C(F)(F)F)nn1CC(=O)Nc1cc(C(=O)c2cn(C(C)C)c3ncncc23)ccc1C#N` [Example 35, N-(2-cyano-5-{[7-(propan-2-yl)-7H-pyrrolo[2,3-d]pyrimidin-5-yl]carbonyl}phenyl)-2-[5-methyl-3-(trifluoromethyl)-1H-pyrazol-1-yl]acetamide], the 50% inhibitory concentration (IC50) came to 10.9 nM.

For `Cc1cn(CC(=O)Nc2cc(C(=O)c3cn(C(C)C)c4ncncc34)ccn2)nn1` [Example 121, 2-(4-methyl-1H-1,2,3-triazol-1-yl)-N-(4-{[7-(propan-2-yl)-7H-pyrrolo[2,3-d]pyrimidin-5-yl]carbonyl}pyridin-2-yl)acetamide], the IC50 was 328 nM.

As to `C[C@H](CO)n1cc(C(=O)c2cc(NC(=O)Cn3ccc(C(F)(F)F)n3)ccn2)c2cncnc21` [Example 26, N-[2-({7-[(2R)-1-hydroxypropan-2-yl]-7H-pyrrolo[2,3-d]pyrimidin-5-yl}carbonyl)pyridin-4-yl]-2-[3-(trifluoromethyl)-1H-pyrazol-1-yl]acetamide], the IC50 was 24.5 nM.

For the compound `Cc1cc(C(F)(F)F)nn1CC(=O)Nc1cc(C(=O)c2cn(C(C)C)c3ncncc23)ccn1` [Example 147, 2-[5-methyl-3-(trifluoromethyl)-1H-pyrazol-1-yl]-N-(4-{[7-(propan-2-yl)-7H-pyrrolo[2,3-d]pyrimidin-5-yl]carbonyl}pyridin-2-yl)acetamide], the half-inhibitory concentration (IC50) was found to be 16.2 nM.

As to `CC(C)c1ccnn1CC(=O)Nc1cc(C(=O)c2cn(C(C)C)c3ncncc23)ccn1` [Example 148, 2-[5-(propan-2-yl)-1H-pyrazol-1-yl]-N-(4-{[7-(propan-2-yl)-7H-pyrrolo[2,3-d]pyrimidin-5-yl]carbonyl}pyridin-2-yl)acetamide], the IC50 came out at 185 nM.

As to `N#Cc1ccc(CC(=O)Nc2cc(C(=O)c3cn([C@H]4CC[C@H](O)CC4)c4ncncc34)ccn2)cc1` [Example 2, 2-(4-cyanophenyl)-N-(4-{[7-(trans-4-hydroxycyclohexyl)-7H-pyrrolo[2,3-d]pyrimidin-5-yl]carbonyl}pyridine-2-yl)acetamide], the half-maximal inhibitory concentration (IC50) turned out to be 84 nM.

On to `Cc1cc(C(F)(F)F)nn1CC(=O)Nc1ccnc(C(=O)c2cn(C(C)(C)CO)c3ncncc23)c1` [Example 60, N-(2-{[7-(1-hydroxy-2-methylpropan-2-yl)-7H-pyrrolo[2,3-d]pyrimidin-5-yl]carbonyl}pyridin-4-yl)-2-[5-methyl-3-(trifluoromethyl)-1H-pyrazol-1-yl]acetamide], for which the half-maximal inhibitory concentration (IC50) stood at 8.3 nM.

As for `CC(C)n1cc(C(=O)c2cc(NC(=O)Cc3ccc(F)cn3)ccn2)c2cnc(N)nc21` [Example 89, N-(2-{[2-amino-7-(propan-2-yl)-7H-pyrrolo[2,3-d]pyrimidin-5-yl]carbonyl}pyridin-4-yl)-2-(5-fluoropyridin-2-yl)acetamide], the IC50 amounted to 76.3 nM.

Consider `O=C(Cc1ccc(Cl)cc1)Nc1cc(C(=O)c2cn(CCO)c3ncncc23)ccn1` [Example 136, 2-(4-chlorophenyl)-N-(4-{[7-(2-hydroxyethyl)-7H-pyrrolo[2,3-d]pyrimidin-5-yl]carbonyl}pyridin-2-yl)acetamide], for which the IC50 was determined as 25.8 nM.
